Marks after values point to notes of the source that are not given here.
How the values were obtained:
[1] = tested on: rats of the Wistar strain; experiment: Analgesic effect (Randall-Selitto method); type: in vivo; settings: oral; for responders at 50 mg/kg / ED50: Rattus norvegicus; for responders at 50 mg/kg / Analgesic effect (Randall-Selitto): fraction of animals; for Analgesic effect (Randall-Selitto): dose 25 mg/kg (*)
Protocol: These tests were conducted according to the Randall-Selitto method using rats of the Wistar strain [L.O. Randall, J.J. Selitto: Arch. int. Pharmacodyn. 111, 409 (1957)]. Except where otherwise noted, the dose of test compound was 50 mg/kg.

5-lipoxygenase = target: T1, 5-lipoxygenase (Cavia porcellus, UniProt A0A286X958); experiment: 5-Lipoxygenase inhibitory activity (5-HITE production by polymorphonuclear leukocyte enzyme fraction); type: biochemical, male guinea pigs of the Hartley strain; settings: inhibition of production of 5-HITE from [14C]-arachidonic acid; 30°C, 30 minutes, pH 7.4; read-out: IC₅₀ (converted)
T1 construct: The supernatant was isolated as an enzyme fraction; from tissue; host or cells: Casein-elicited peritoneal polymorphonuclear leukocytes of male Hartley guinea pigs; sonicated, 10,000 G supernatant
T1 sequence (A0A286X958 1-674): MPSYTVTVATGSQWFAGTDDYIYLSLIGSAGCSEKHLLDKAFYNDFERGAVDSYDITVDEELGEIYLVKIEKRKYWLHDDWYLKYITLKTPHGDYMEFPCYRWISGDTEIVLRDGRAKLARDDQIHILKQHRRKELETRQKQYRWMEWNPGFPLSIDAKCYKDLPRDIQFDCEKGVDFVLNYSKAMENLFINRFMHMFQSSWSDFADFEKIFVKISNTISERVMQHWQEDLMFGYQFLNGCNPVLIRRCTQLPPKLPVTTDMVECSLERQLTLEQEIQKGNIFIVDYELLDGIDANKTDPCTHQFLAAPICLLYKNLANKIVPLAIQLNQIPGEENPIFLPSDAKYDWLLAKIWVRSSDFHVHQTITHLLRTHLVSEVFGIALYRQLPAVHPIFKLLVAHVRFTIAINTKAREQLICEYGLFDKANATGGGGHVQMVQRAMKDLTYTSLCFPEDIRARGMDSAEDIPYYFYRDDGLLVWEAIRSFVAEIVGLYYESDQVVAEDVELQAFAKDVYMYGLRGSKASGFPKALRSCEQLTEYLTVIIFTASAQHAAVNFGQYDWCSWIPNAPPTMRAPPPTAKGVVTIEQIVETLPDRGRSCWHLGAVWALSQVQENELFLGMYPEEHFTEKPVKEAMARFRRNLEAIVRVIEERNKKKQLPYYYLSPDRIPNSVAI
Protocol: The preparation of polymorphonuclear leukocytes was carried out by the method of Sbarra et al [Sbarra A.J. and Karnovsky, M. L.; J. Biol. Chem., 234, 1355 - 1362 (1959)]. Specifically, a 2% w/v aqueous casein solution was administered intraperitoneally to male guinea pigs of the Hartley strain, each weighing about 400 - 500 g. The polymorphonuclear leukocytes were harvested from the peritoneal exudate 14 - 16 hours after the administration. The preparation of enzyme was carried out by the method of Yoshimoto et al [Yoshimoto, T., Furakawa, M., Yamamoto, S., Horie, T. and Watanabe-Kohno, S.; Biochem. Biophys. Commun., 116, 612 - 618 (1983)]. The harvested polymorphonuclear leukocytes were suspended in a 50 mM phosphate buffer solution (pH = 7.4) containing 10% ethylene glycol and 1mM EDTA at a density of 1 x 10⁸ cells/ml. The suspension was subjected to ultrasound twice, each time for 30 seconds at 20 KHz, and was then centrifuged for 10 minutes at 10,000 G. The supernatant was isolated as an enzyme fraction, which was stored at -80°C. The enzyme assay was carried out by a modification of Ochi's method [Ochi, K., Yoshimoto, T., Yamamoto., S., Taniguchi, K. and Miyamoto, T.; J. Biol. Chem., 258, 5754-5758 (1983)]. Specifically, 2 mM CaCℓ₂, 1 mM glutathione, 2 mM ATP (adenosine-5′-triphosphate), 16 µM [¹⁴C]-arachidonic acid (0.16 µCi, dissolved in 5 µl ethanol), the test compound (dissolved in 4 µl DMSO) and the enzyme solution (containing 200 µg of protein) were made up to a final volume of 200 µl in a 50 mM potassium phosphate buffer solution (pH = 7.4). The test compound and the enzyme were preincubated at 30°C for 5 minutes. After the addition of the arachidonic acid, the mixture was incubated at 30°C for 30 minutes. The reaction was stopped by the addition of 50µl of 0.2N citric acid. The reaction mixture was then extracted with ethyl acetate and the extract was concentrated under a stream of nitrogen. The concentrate was subjected to thin layer chromatography and eluted with a 85 : 15 : 0.1 by volume mixture of diethyl ether, petroleum ether and acetic acid. The 5-hydroxyicosatetraenoic acid (5-HITE) fraction of the plate was identified with a radioactive scanner and the radioactivity was measured. The IC₅₀ (µg/ml) was calculated against the inhibitory rate of the production of 5-HITE of a control group, to which a test compound was not administered.

[2] = tested on: male mice of the ddy strain; experiment: Acute toxicity; type: in vivo; settings: fraction of animals; dose 300 mg/kg oral in 0.5% carboxymethyl cellulose, observed for 7 days
Protocol: The test animals employed were male mice of the ddy strain (age: 5 weeks). […] The dose of test compound was 300 mg/kg.

[3] = tested on: inflammation induced by anti-rat IgG rabbit serum; experiment: Anti-inflammatory effect (reversed passive alusas reaction, Evans blue extraction); type: in vivo, rats of the Sprague-Dawley strain; settings: oral; for inhibition in vivo at 50 mg/kg / inhibition in vivo at 25 mg/kg: 2.5 h, percent inhibition of inflammation relative to control group; for ED50: ID₅₀, Sprague-Dawley rats
Protocol: The test animals were rats of the Sprague-Dawley strain, which had first been fasted for 17 hours. The hair was trimmed from their dorsal portions by means of a hair clipper, and 0.1 ml/site of anti-rat IgG rabbit serum was injected intracutaneously at the trimmed part to induce inflammation. Except in the case of the control animals, to which no anti-inflammatory drug was administered, the test drug was administered orally immediately before inflammation was induced. Except where otherwise noted, the dose of test compound was 50 mg/kg. Two hours after induction of inflammation, a 1% by volume solution of Evans blue in physiological saline was injected intravenously into the tail of each rat in an amount of 1 ml per each animal. 30 minutes after this injection, the rats were sacrificed with carbon dioxide and their skins were peeled off to extract the chromogen of the blue spots. In more detail, the skins were cut into small pieces and extracted with 5 ml of an extraction solvent at room temperature for 2 days. The supernatant obtained by centrifugation was then measured spectrophotometrically at an absorption wavelength of 605 nm. The percent inhibition of inflammation of the group of rats to which the test drug was administered was determined relative to the control group.

[4] = tested on: carrageenan-induced edema; experiment: Anti-inflammatory effect (carrageenan edema method); type: in vivo, rats of the Wistar strain; settings: Rattus norvegicus, percent inhibition of carrageenan-induced edema, oral
Protocol: The percent inhibition against carrageenan-induced edema in rats of the Wistar strain, using the conventional method of C.A. Winter, E.A. Risley, G.W. Nuss [J. Pharmacol., Exp. Therap., 141, 369 (1963)]. Except where otherwise noted, the dose of test compound was 50 mg/kg.

[5] = tested on: carrageenan-induced edema; experiment: as above; type: in vivo, rats of the Wistar strain; settings: oral, Wistar rats; for ED50: Rattus norvegicus, ID₅₀
gastric acid secretions = experiment: Anti-ulcer activity: suppression of gastric acid secretions (Shay method); type: in vivo, rats; settings: gastric acid secretion

CCc1c(-c2ccccc2)nn2cc[nH]c12 [Example 10]
responders at 50 mg/kg [1]: 100% | IC50 (5-lipoxygenase): 5.21 µM | Toxicity (mouse) [2]: 0/3 | inhibition in vivo at 50 mg/kg [3]: 56.3% | inhibition in vivo at 50 mg/kg [4]: 51.3%

COc1ccc(-c2cc3[nH]ccn3n2)cc1 [Example 5]
responders at 50 mg/kg [1]: 100% | Toxicity (mouse) [2]: 0/3 | inhibition in vivo at 50 mg/kg [3]: 67.6% | inhibition in vivo at 50 mg/kg [4]: 53.7%

CCc1c(-c2cccs2)nn2cc[nH]c12 [Example 24]
Analgesic effect (Randall-Selitto) [1]: 4/5* | Toxicity (mouse) [2]: 0/3 | inhibition in vivo at 50 mg/kg [4]: 71.9%

Clc1ccc(-c2cc3[nH]ccn3n2)cc1 [Example 8, 6-(p-chlorophenyl)-1H-imidazo[1,2-b]pyrazole]
responders at 50 mg/kg [1]: 100% | Toxicity (mouse) [2]: 0/3 | inhibition in vivo at 50 mg/kg [3]: 74.7% | inhibition in vivo at 50 mg/kg [4]: 76.5%

c1ccc(-c2cnn3cc[nH]c23)cc1 [Example 29, 7-Phenyl-1H-imidazo[1.2-b]pyrazole]
ED50 ([1]; ED₅₀, Wistar rats): 5.1 mg/kg | Analgesic effect (Randall-Selitto) [1]: 5/5* | ED50 [5]: 20.1 mg/kg | Toxicity (mouse) [2]: 0/3 | inhibition in vivo at 25 mg/kg [3]: 72.2% | ED50 [3]: 14.8 mg/kg | inhibition in vivo at 25 mg/kg [4]: 63.2%

Cc1c(-c2cccs2)nn2cc[nH]c12 [Example 21, 7-Methyl-6-(2-thienyl)-1H-imidazo[1,2-b]pyrazole]
ED50 ([1]; ED₅₀, Wistar rats): 10 mg/kg | responders at 50 mg/kg [1]: 100% | ED50 [5]: 22.3 mg/kg | Toxicity (mouse) [2]: 0/3 | inhibition in vivo at 25 mg/kg [3]: 78.1% | ED50 [3]: 7.9 mg/kg | inhibition in vivo at 50 mg/kg [4]: 53.4%

c1csc(-c2cnn3cc[nH]c23)c1 [Example 32, 7-(2-thienyl)-1H-imidazo[1,2-b]pyrazole]
ED50 ([1]; ED₅₀, Wistar rats): 6.9 mg/kg | Analgesic effect (Randall-Selitto) [1]: 5/5* | ED50 [5]: 23.4 mg/kg | Toxicity (mouse) [2]: 0/3 | inhibition in vivo at 25 mg/kg [3]: 82.5% | ED50 [3]: 10.9 mg/kg | inhibition in vivo at 25 mg/kg [4]: 54.7%

c1ccc(-c2cc3[nH]ccn3n2)cc1 [Example 3, 6-phenyl-1H-imidazo[1,2-b]pyrazole]
ED50 ([1]; ED₅₀, Wistar rats): 6.1 mg/kg | responders at 50 mg/kg [1]: 100% | ED50 [5]: 36.6 mg/kg | Toxicity (mouse) [2]: 0/5 | inhibition in vivo at 50 mg/kg [3]: 88% | ED50 [3]: 13.9 mg/kg | Suppression rate (%) (gastric acid secretions; dosage 10 mg/kg i.d.): 66% | Suppression rate (%) (gastric acid secretions; dosage 30 mg/kg i.d.): 85% | inhibition in vivo at 50 mg/kg [4]: 65.1%

CCCCc1c(-c2ccccc2)nn2cc[nH]c12 [Example 12]
IC50 (5-lipoxygenase): 3.93 µM

3-methoxy-1-(4-methoxy-6-methylpyrimidin-2-yl)-5-methylpyrazole [Mepirizole, reference compound]
Analgesic Randall-Selitto (ED₅₀) ([1]; ED₅₀, Wistar rats): 63.9 mg/kg | Anti-inflammatory Carrageenan (ID₅₀) [5]: 106 mg/kg

c1coc(-c2cc3[nH]ccn3n2)c1 [Example 22, 6-(2-Furyl)-1H-imidazo[1,2-b]pyrazole]
Analgesic effect (Randall-Selitto) [1]: 4/5* | Toxicity (mouse) [2]: 0/3 | inhibition in vivo at 50 mg/kg [4]: 76.3%

CC(C)c1c(-c2ccccc2)nn2cc[nH]c12 [Example 11]
IC50 (5-lipoxygenase): 8.88 µM

CN/C(=N/CCSCc1nc[nH]c1C)NC#N [Cimetidine, reference compound]
Suppression rate (%) (gastric acid secretions; dosage 10 mg/kg i.d.): 62% | Suppression rate (%) (gastric acid secretions; dosage 30 mg/kg i.d.): 58%

c1csc(-c2cc3[nH]ccn3n2)c1 [Example 20, 6-(2-Thienyl)-1H-imidazo[1,2-b]pyrazole]
ED50 ([1]; ED₅₀, Wistar rats): 8 mg/kg | responders at 50 mg/kg [1]: 100% | ED50 [5]: 17.1 mg/kg | Toxicity (mouse) [2]: 0/3 | inhibition in vivo at 50 mg/kg [3]: 79.6% | ED50 [3]: 7 mg/kg | Suppression rate (%) (gastric acid secretions; dosage 10 mg/kg i.d.): 84% | Suppression rate (%) (gastric acid secretions; dosage 30 mg/kg i.d.): 93% | inhibition in vivo at 50 mg/kg [4]: 89.3%

Cc1c(-c2ccccc2)nn2cc[nH]c12 [Example 4, 7-methyl-6-phenyl-1H-imidazo[1,2-b]pyrazole]
ED50 ([1]; ED₅₀, Wistar rats): 2.4 mg/kg | responders at 50 mg/kg [1]: 100% | ED50 [5]: 34.1 mg/kg | Toxicity (mouse) [2]: 0/5 | inhibition in vivo at 50 mg/kg [3]: 60.5% | ED50 [3]: 26.7 mg/kg | Suppression rate (%) (gastric acid secretions; dosage 10 mg/kg i.d.): 67% | Suppression rate (%) (gastric acid secretions; dosage 30 mg/kg i.d.): 100% | inhibition in vivo at 50 mg/kg [4]: 64.9%

FC(F)(F)c1ccc(-c2cc3[nH]ccn3n2)cc1 [Example 1, 6-(4-Trifluoromethylphenyl)-1H-imidazo[1,2-b]pyrazole]
responders at 50 mg/kg [1]: 80% | Toxicity (mouse) [2]: 0/3 | inhibition in vivo at 50 mg/kg [4]: 44.2%

CCCCCCCCCc1c(-c2ccccc2)nn2cc[nH]c12 [Example 41]
IC50 (5-lipoxygenase): 2.13 µM

CN(C)CCCOc1nn(Cc2ccccc2)c2ccccc12 [Benzydamine, reference compound]
ED50 ([1]; ED₅₀, Wistar rats): > 200 mg/kg | ED50 [5]: 193 mg/kg

FC(F)(F)c1cccc(-c2cc3[nH]ccn3n2)c1 [Example 2]
responders at 50 mg/kg [1]: 60% | Toxicity (mouse) [2]: 0/3 | inhibition in vivo at 50 mg/kg [3]: 69.6% | inhibition in vivo at 50 mg/kg [4]: 54%

Cc1nn2cc[nH]c2c1-c1ccccc1 [Example 30, 6-methyl-7-phenyl-1H-imidazo[1,2-b]pyrazole]
ED50 ([1]; ED₅₀, Wistar rats): 5.9 mg/kg | Analgesic effect (Randall-Selitto) [1]: 5/5* | IC50 (5-lipoxygenase): 2.53 µM | ED50 [5]: 25 mg/kg | Toxicity (mouse) [2]: 0/3 | inhibition in vivo at 25 mg/kg [4]: 50%
